Here are results for two compounds from publication PMC4118831, “Interaction of serum amyloid P component with hexanoyl bis(D-proline) (CPHPC)” (Acta Crystallographica Section D: Biological Crystallography, 2014).

Structures are written as SMILES.

A word on the Kd: it is the concentration at which binding is half-saturated.

This experiment has as its target T1, serum amyloid P component (SAP) (Homo sapiens, UniProt P02743).
T1 construct: gene APCS; pentamer purified from serum; 204-residue subunits
As to the kind of experiment: ITC; crystal structure. The class given is binding. A general note: In ITC the heat of successive injections is recorded.

T1 sequence (P02743 20-223): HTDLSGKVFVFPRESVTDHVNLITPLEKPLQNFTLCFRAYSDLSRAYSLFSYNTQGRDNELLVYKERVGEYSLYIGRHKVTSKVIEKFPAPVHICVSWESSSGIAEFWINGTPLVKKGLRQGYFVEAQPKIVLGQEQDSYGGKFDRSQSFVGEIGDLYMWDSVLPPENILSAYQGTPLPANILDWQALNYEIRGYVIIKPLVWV

`CC(=O)N1CCC[C@H]1C(=O)O` [N-acetyl-L-proline] displayed a Kd of 322 µM.

In turn, `CC(=O)N1CCC[C@@H]1C(=O)O` [N-acetyl-D-proline] came in with a Kd of 18.6 µM. This Kd lies about 17-fold lower than the previous one.
